Data: patent US20220323414A1, “FARNESOID X RECEPTOR AGONISTS FOR THE TREATMENT OF DISEASE” (Metacrine, Inc., priority 2018, published 2022)
One block for each molecule: values may come before it.

What was measured:
[1] = test system: fibroblast growth factor 19 (FGF19); assay: Phase 1 MAD pharmacodynamics: plasma FGF19; type: in vivo, human; conditions: healthy subjects, multiple doses 20 mg to 150 mg
Protocol: (§1) PD: Plasma levels of 7-alpha-hydroxy-4-cholesten-3-one (C4), plasma levels of fibroblast growth factor 19 (FGF19), and levels of total bile acids (for Part B only).
(§2) 6 groups of 10 healthy male subjects each to investigate the safety, tolerability, PK, and PD of multiple oral doses of Compound 1. Subjects in all groups received ascending multiple oral doses of Compound 1 or matching placebo once daily on Days 1 to 14. Dosing was conducted under fasted conditions on each dosing day. Patients in each group received multiple oral doses of 20, 40, 50, 80, 100, and 150 mg of Compound 1 once daily on days 1 to 14 of the study. Eight members of each group received Compound 1, and two members of each group received placebo.

[2] = test system: subjects with NASH (liver fat content); assay: NASH clinical trial Part 1: hepatic fat; type: in vivo, human; conditions: NASH patients, 50 mg daily, after 28 days
Protocol: Purpose: The purposes of this study was to evaluate the safety and tolerability of Compound 1 monotherapy in subjects with NASH, to characterize the pharmacokinetics (PK) of Compound 1, to characterize the pharmacodynamics (PD) of Compound 1 dose and response, to estimate the activity of Compound 1 using Magnetic Resonance Imaging-Proton Density Fat Fraction (MRI-PDFF) and NASH fibrosis biomarkers.
(§3) Part 1: An open-label, uncontrolled, single-center study assessing 50 mg of Compound 1 treatment for 4 weeks; 10 subjects were enrolled.
Length of Study: Subjects enrolled in Part 1 participated in the study for approximately 12 weeks, which included a 4-week screening period, 4 weeks (28 days) for the treatment period, and 4 weeks for follow-up. […]
The 10 patients with NASH who enrolled in the study received 50 mg doses of Compound 1 daily for a period of 28 days as described above. Hepatic fat levels in each patient were assessed prior to treatment with Compound 1, after 28 days of treatment with Compound 1, then again 28 days after cessation of treatment with Compound 1.

[3] = test system: 7-alpha-hydroxy-4-cholesten-3-one (C4); assay: Phase 1 MAD pharmacodynamics: plasma C4; type: in vivo, human; conditions: healthy subjects
Protocol: as §1, §2

[4] = test system: gamma-glutamyl transferase (GGT); assay: NASH clinical trial Part 1: GGT; type: in vivo, human; conditions: NASH patients, 50 mg daily
Protocol: as §3
(§4) Length of Study: Subjects enrolled in Part 1 participated in the study for approximately 12 weeks, which included a 4-week screening period, 4 weeks (28 days) for the treatment period, and 4 weeks for follow-up. Subjects enrolled in Part 2 will participate in the study for approximately 20 weeks, which includes an approximate 4-week screening period, 12 weeks (84 days) for the treatment period, and 4 weeks for follow-up. • Study Treatment (Part 1): Subjects enrolled in Part 1 received Compound 1 50 mg for 28 consecutive days. • Study Treatment (Part 2): Subjects enrolled in Part 2 will receive Compound 1 (80 mg or 50 mg) or matching placebo for 84 consecutive days.
The resulting percent changes from baseline for these biomarkers can be seen in FIG. 6A, FIG. 6B.

[5] = test system: alanine aminotransferase (ALT); assay: NASH clinical trial Part 1: ALT; type: in vivo, human; conditions: NASH patients, 50 mg daily
Protocol: as §3, §4
Levels of alanine aminotransferase (ALT) and gamma-glutamyl transferase (GGT) were assessed in subjects prior to administration of Compound 1, after 14 days of dosing of Compound 1, and after 28 days of dosing of Compound 1. The resulting percent changes from baseline for these biomarkers can be seen in FIG. 6A, FIG. 6B.

hFXR = biological target: T1, hFXR (Homo sapiens, UniProt Q96RI1); assay: In Vitro FXR Assay (TK); type: cell-based; conditions: transfected CV-1 cells, luminescence, 18 hrs
T1 construct: expressed in transfected cells; host or cells: CV-1 cells
T1 sequence (Q96RI1 1-486): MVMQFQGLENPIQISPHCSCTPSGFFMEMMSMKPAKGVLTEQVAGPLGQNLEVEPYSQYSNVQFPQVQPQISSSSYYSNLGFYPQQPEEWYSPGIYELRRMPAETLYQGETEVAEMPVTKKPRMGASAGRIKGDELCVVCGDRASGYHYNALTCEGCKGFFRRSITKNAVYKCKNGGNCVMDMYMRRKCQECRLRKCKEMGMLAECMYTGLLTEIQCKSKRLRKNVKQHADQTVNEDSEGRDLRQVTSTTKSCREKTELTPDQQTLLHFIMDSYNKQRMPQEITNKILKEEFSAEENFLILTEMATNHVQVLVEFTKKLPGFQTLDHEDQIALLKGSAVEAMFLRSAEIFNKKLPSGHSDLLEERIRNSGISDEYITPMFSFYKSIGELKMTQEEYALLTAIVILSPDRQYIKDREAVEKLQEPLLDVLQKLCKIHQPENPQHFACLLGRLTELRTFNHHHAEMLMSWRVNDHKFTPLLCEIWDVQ
T1 sequence (P19793 1-462 partner): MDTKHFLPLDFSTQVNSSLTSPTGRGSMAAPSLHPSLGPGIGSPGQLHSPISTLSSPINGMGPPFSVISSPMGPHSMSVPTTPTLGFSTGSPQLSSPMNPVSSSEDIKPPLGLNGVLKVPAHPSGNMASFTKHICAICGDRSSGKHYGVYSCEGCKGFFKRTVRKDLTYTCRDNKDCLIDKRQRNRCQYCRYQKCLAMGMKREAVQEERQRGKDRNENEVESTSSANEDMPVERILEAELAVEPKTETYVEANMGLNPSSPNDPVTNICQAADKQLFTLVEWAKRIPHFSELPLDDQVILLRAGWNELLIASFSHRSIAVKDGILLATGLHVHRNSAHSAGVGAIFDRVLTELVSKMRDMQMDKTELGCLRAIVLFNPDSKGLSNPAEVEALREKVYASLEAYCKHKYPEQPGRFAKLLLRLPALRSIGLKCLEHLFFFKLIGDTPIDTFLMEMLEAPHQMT
Protocol: CV-1 cells were seeded at a density of 2,000,000 cells in a T175 flask with DMEM+10% charcoal double-stripped FBS and incubated at 37° C. in 5% CO2 for 18 h (O/N).
After 18 h of incubation, the medium in the T175 flask was changed with fresh DMEM+10% charcoal super-stripped serum. In a polypropylene tube, 2500 μL OptiMEM (Life Technologies, Cat #31985-062) was combined with expression plasmids for hFXR, hRXR, TK-ECRE-luc and pCMX-YFP. The tube was then briefly vortexed and incubated at room temperature for 5 minutes. Transfection reagent (X-tremeGENE HP from Roche, Cat #06 366 236 001) was added to the OptiMEM/plasmid mixture vortexed and incubated at room temperature for 20 minutes. Following incubation, the transfection reagent/DNA mixture complex was added to cells in the T175 flask and the cells were incubated at 37° C. in 5% CO2 for 18 h (O/N).
Compounds were serially diluted in DMSO and added to transfected CV-1 cells. The cells were then incubated for 18 hrs. The next day cells were lysed and examined for luminescence.

total bile acids = assay: Phase 1 MAD pharmacodynamics: total bile acids; type: in vivo, human; conditions: healthy subjects, 50-150 mg/day cohorts, day 14
Protocol: as §1, §2

[6] = NASH clinical trial Part 1: plasma levels of Compound 1; type: in vivo, human; conditions: 50 mg, healthy and NASH patients
Protocol: as §3
Pharmacokinetic Assessments: Blood samples will be taken according to the PK sampling schedule.
as §4

[7] = Phase 1 multiple ascending dose PK in healthy subjects (plasma Compound 1 concentrations); type: in vivo, human
Excerpt: Purpose: The purposes of this study was to assess the safety and tolerability of single and multiple oral doses of Compound 1, to characterize the pharmacokinetics (PK) of single and multiple oral doses of Compound 1, to characterize the pharmacodynamics (PD) of single and multiple oral doses of Compound 1, and to identify the recommended multiple oral dose level(s) of Compound 1 for future studies in patients. The study was a first-in-human, 2-part, single-center Phase 1, randomized, double-blind, placebo-controlled study in healthy male subjects.
PK: Plasma Compound 1 concentrations, Plasma PK parameters.
as §2

[8] = test system: SCID mice with CD4+CD45RB high T-cell transfer colitis; assay: Adoptive T-cell transfer colitis mouse model; type: in vivo; conditions: for reduction of histopathology sum score: vehicle sum score 10
Protocol: Adoptive T-cell transfer colitis model is accepted as a relevant mouse model for human inflammatory bowel disease (IBD). To induce colitis in this model, the CD4 T-lymphocyte population is isolated from the spleens of donor mice. Subsequently, a subpopulation of CD4+CD45RB high T-cells is purified by cell sorting using flow cytometry. The purified CD4+CD45RB high T-cells are injected into the peritoneal cavity of the recipient severe combined immunodeficiency (SCID) mice. Colitis develops approximately three to six weeks after T-cell transfer, which is monitored by loss of body weight, inconsistent stool or bloody diarrhea. Testing of combinations of an FXR agonist and an additional therapeutic agent described herein is initiated at the same time of injecting purified CD4+CD45RBhigh T-cells to the recipient SCID mice. Alternatively, the combinations of an FXR agonist and an additional therapeutic agent described herein are administered two or three weeks post T-cell transfer, when colitis has already developed in the model. During the period of administering the combinations of an FXR agonist and an additional therapeutic agent described herein to mice, the therapeutic effects may be monitored by observations on body weights, stool consistency, or rectal bleeding. After euthanasia, the disease development and effects of the compounds are further quantified by measuring colon weight and length, and colon histology by H&E staining for inflammation and structural changes in mucosa, and protein and RNA expression of genes related to the disease.

- EC50 (hFXR): ≤ 250 nM
- plasma levels over the 24 hour period after dosing [6]: remained nearly constant
SMILES: COc1ccc([C@H]2CC[C@H](CN(c3cccc(-c4cnn(C5CC5)c4)c3)C(=O)[C@H]3CC[C@H](O)CC3)CC2)cc1C [Compound 1]
- mean FGF19 levels [1]: increased
- time of maximum increase in mean FGF19 levels [1]: 6 to 10 hours post dose
- average reduction in fatty liver deposits from baseline [2]: 20.3%
- dose at which the decrease in C4 levels was notable ([3]; Day 14): ≥ 50 mg
- mean C4 levels at 24 hours post dose ([3]; Day 14): remained decreased
- mean C4 levels versus placebo ([3]; multiple doses 20 mg to 150 mg, Day 14, most dose levels): lower than for placebo treatment
- GGT levels decrease [4]: 23.2%
- GGT decrease from baseline ([4]; day 28): 36.3%
- ALT decrease from baseline ([5]; day 14): 7.9%
- ALT below baseline ([5]; day 28): 16.5%
- change in bile acid levels (total bile acids): decrease in bile acid levels
- plasma levels at 24 hours following dosing ([7]; 14 days once daily oral dosing): high levels in the plasma at 24 hours following dosing
- plasma drug exposure with dose ([7]; 14 days once daily oral, 20 mg to 150 mg): increase in plasma drug exposure with dose

SMILES: COc1ncc(-c2cccc(N(C[C@H]3CC[C@H](c4ccc(OC)c(C)c4)CC3)C(=O)[C@H]3CC[C@H](O)CC3)c2)s1 [Compound 2, (1R,4R)-4-hydroxy-N-(((1R,4R)-4-(4-methoxy-3-methylphenyl)cyclohexyl)methyl)-N-(3-(2-methoxythiazol-5-yl)phenyl)cyclohexane-1-carboxamide]
- reduction in colon W/L as compared to vehicle ([8]; 10 mg/kg): 41%
- reduction of histopathology sum score ([8]; 10 mg/kg): 71%
- reduction in colon W/L as compared to vehicle ([8]; 30 mg/kg): 38%
- reduction of histopathology sum score ([8]; 30 mg/kg): 74%
- reduction in body weight from baseline caused by T-cell transfer ([8]; 12% body weight reduction after CD4+CD45RBhi T-cell transfer, Compound 2 at 10 mg/kg): reversed
- efficacy in reducing colitis relative to comparators ([8]; adoptive T-cell transfer model): efficacy superior to CsA and comparable to anti-IL-12/23 treatment
